Experimental findings from PubChem BioAssay (NCI) are described below.

This assay concerns A498 renal. The assay is described as follows: inhibition of tumour cell growth, NCI panel, 48 h.

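Step 1: Grow cells in 96-well plates. Step 2: Expose to compound for 48 hours at 5 concentrations. Step 3: Interpolate endpoints linearly; if unreached, use highest concentration. The concentration for full growth arrest is given as TGI.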

In turn, `N=C(N)c1ccc(N=Nc2c(O)ccc3c2[nH]c2ccccc23)cc1` gave a TGI greater than 100 µM.
